In the assay the test system is velvetleaf. The assay can be described thus: efficacy of glyphosate spray on velvetleaf. As to conditions: in presence of drift reducing adjuvants, especially DR. It counts as in vivo. The text has this: Applicant's invention further contemplates the use of drift management adjuvants on the atomization, drift, patternation, retention, deposit formation, and efficacy of an herbicide spray. The drift of the spray particles decreases by suppressing the formation of fine droplets, i.e., <150 microns in diameter. The impact of drift reducing additives on pesticide efficacy in terms of the effect on the major phases, i.e., the larger droplets, on the dose transfer process is also considered. Two representative drift reducing adjuvants, i.e., (1) polyacrylamide polymers represented by Nalcotrol or Nalcotrol II (N or N2), and (2) biodegradable polymers represented by AgRHO DR-2000 (DR) of Rhone-Poulenc Inc. were considered in mixtures containing glyphosate.
Pattern distributions undergo significant deviations from even distributions using herbicide alone when polymers are added. […] 30% less spray is reflected from the cabbage leaves from mixtures containing DR compared to either water alone or water containing polyacrylamide polymers. Spray retention is reduced by the addition of drift reducing adjuvants. DR is better at wetting the cabbage leaves. […] The efficacy of glyphosate on velvetleaf is enhanced by the presence of drift reducing adjuvants, especially DR. […]

As for `O=C(O)CNCP(=O)(O)O` [glyphosate], the “efficacy of glyphosate on velvetleaf” value is listed as “enhanced”.

For the origin of these results see patent US20130079228A1, “Agricultural spray solution compositions and methods” (priority 2011, published 2013).
